Measurements taken from article PMC8546421, “Molecular modelling of the FOXO4-TP53 interaction to design senolytic peptides for the elimination of senescent cancer cells” (EBioMedicine, 2021).
Where no end group is shown, it is not given here.

System: senescent A375 human melanoma cells
Assay: Orthotopic xenograft of senescent luciferase A375 cells in mouse ears
Assay type: in vivo
Conditions: NSG mouse ears, local injection 50 µL of 5 mg/mL once daily for two days, imaged 24 hours after second treatment; ANOVA p<0.01
From the text: Mice were aged between 3-8 months and 20-30 g in weight and were housed in specific pathogen free cages. Animals were randomly distributed among treatment groups by assigning mice within the same cage to different treatment regimens. To minimise confounders, mouse treatment order was randomised within each cage. Male and female mice were distributed between all treatment groups since the chemicals used were directly injected and are not metabolized. Researchers were not blinded to the group allocation, but all attempts were made to analyse the data without knowing treatment conditions. NOD.Cg-Prkdcscid Il2rgtm1Wjl/SzJ (NSG) were purchased from The Jackson Laboratory (IMSR Cat# JAX:005557, RRID:IMSR_JAX:005557). NOD.Cg-KitW-41J Tyr + Prkdcscid Il2rgtm1Wjl/ThomJ (NBSGW) were purchased from The Jackson Laboratory (IMSR Cat# JAX:026622, RRID:IMSR_JAX:026622). Immunocompromised mice used for these experiments were all in the NSG background; however, some mice were F1 generation of NSG x NBSGW, thus the brown coat colour as NBSGW mice have tyrosinase. Xenografts containing senescent cells were established by injecting A375-Luc/iRFP human melanoma cells which contained a luciferase expressing gene into immunocompromised NSG ears. Senescence was induced in the cells via doxorubicin treatment (40 nM) then resuspended in DMEM prior to injection. Each ear was then injected with 50 µL containing approximately 1,000,000 cells. The ears were treated once daily for two days with 50 µL of either 5 mg/mL peptide, or saline. To control for confounders, each mouse contained one ear treated with saline (control). For imaging, mice were injected with 3 mg luciferin intravenously and imaged before and after treatment. Transgenic mice (BrafCA, PtenloxP, Tyr::CreERT2) were purchased from The Jackson Laboratory (IMSR Cat# JAX:013590, RRID:IMSR_JAX:013590). These mice were maintained on a C57Bl6 background and all experimental mice contained Tyr::CreER with either Braf^CA/+, Pten^fx/+; Braf^CA/CA, Pten^fx/+, or Braf^CA/+, Pten^fx/fx. […] Hypopigmented melanomas sporadically formed over the next 3-5 months, typically on the back of the mouse. These melanomas were then directly injected with 100 µL of either 20 mg/mL ES2+10%DMSO, saline+10%DMSO, saline+10%Dabrafenib, or 20 mg/mL ES2+10%Dabrafenib. The researchers were not blinded to the experiment, but each mouse contained an internal control and all imaging was done with the same exposure times based upon control tissue. For survival analyses, either 750,000 or 25,000 A375-Luc/iRFP cells were injected intradermally into NSG mice. Different combinations of drugs were locally injected to the region once daily for two days with 50 µL of either 5 mg/mL ES2, 10%Dabrafenib, or 5mg/mL ES2+10%Dabrafenib. Dabrafenib was made at 100 mg/mL in DMSO. Mice were then monitored daily and allowed to age until a humane endpoint was reached according to our IACUC protocol, which in this case was tumours of 2 cm in size. Aged C57Bl6 male mice were purchased from the Jackson Laboratory (IMSR Car# JAX:000664, RRID:IMSR_JAX:000664) at 72 weeks of age and were started on the experiment at 82 weeks. Mice were treated with 3 mg of ES2 via tail vein injection weekly for three weeks and weighed weekly. Blood was drawn prior to beginning experiments and at the endpoint. To generate plasma, blood was centrifuged at 1,500g for 10 minutes, then 2,500g for 10 minutes, then frozen for later analyses. […]

## PRKGGRRRRAWGRRRRRRRRRRRRRRAPRKRLTLA [ES2]
  luciferase signal compared to E1 and saline: statistically significantly reduced luciferase signal
